For experiment [1], the system named is T1, TPC2^N653G.
T1 construct: expressed in transfected cells
The experiment can be described thus: Whole-endolysosome recordings of ITPC2-N653G. The format is biochemical, human. To be noted: for PX / PNa, K+: TPC2 N653G, agonist-activated current.

The subject of experiment [2] is T2, TPC2^K204A in HEK293 cells.
T2 construct: expressed in transfected cells; host or cells: HEK293
Nature of the experiment: Whole-cell recordings of ITPC2-K204A. Format: cell-based, human. To be noted: TPC2^K204A-transfected HEK293 cells.

Experiment [3] addresses T3, PI(3,5)P2-insensitive mutant TPC2 channel (K204A) (Homo sapiens, UniProt Q8NHX9, K204A).
T3 construct: expressed in transfected cells; host or cells: HEK293
The experiment can be described thus: Whole-endolysosome recordings of ITPC2-K204A. The following applies: for Normalized I-TPC2: TPC2-K204A. Format: biochemical. An excerpt:
PI(3,5)P2 reportedly binds to Lys204 and adjacent AA residues to activate TPC2 ([She et al., 2019]). […] Lysosomal PI(3,5)P2 may play a permissive role in TPC activation in intact cells ([Ruas et al., 2015]).
(§1) Data are presented as Mean ± S.E.M (n = 3 patches). […] For panels B, D and F, individual data and Mean ± S.E.M are presented. *, p<0.05; **, p<0.01; ***, p<0.001; N.S., no significance. Figure 3—source data 1. […] Figure 3—figure supplement 1. […] Both individual data points and Mean ± S.E.M are presented (n ≥ 3 patches; also see individual data in Figure 3—figure supplement 1—source data 1). Figure 3—figure supplement 1—source data 1.
All TPC1 and TPC2 mutants were generated with a site-directed mutagenesis kit (Qiagen) using EGFP- human TPC1 and TPC2 as the templates. All constructs were confirmed by DNA sequencing.
(§2) Whole-endolysosome recordings were performed on manually isolated enlarged endolysosomes ([Wang et al., 2012]). In brief, a patch pipette was pressed against a cell and quickly pulled away to slice the cell membrane. Enlarged endolysosomes were released into a dish and identified by monitoring EGFP-TPC1/2 or the mCherry-TPC1/2 fluorescence. After formation of a gigaseal between the patch pipette and the enlarged endolysosome, capacitance transients were compensated. Voltage steps of several hundred mVs with millisecond duration were then applied to break into the vacuolar membrane. The whole-endolysosome configuration was verified by the re-appearance of capacitance transients after break-in.
(§3) Data were collected using an Axopatch 200A patch clamp amplifier, Digidata 1440, and pClamp 10.2 software (Axon Instruments). Whole-endolysosome currents were digitized at 10 kHz and filtered at 2 kHz. All experiments were conducted at room temperature (21–23°C), and all recordings were analyzed with pClamp 10.2, and Origin 8.0 (OriginLab, Northampton, MA). The permeability to cations (relative to PNa) was estimated based on following equations ([Lewis, 1979]) and Erev measurement under bi-ionic conditions:(1) PX/PNa=γNa/γX{[Na^+]Luminal/[X^+]Cytoplasmic}{exp([…])} (2) PCa/PNa=γNa/γCa{[Na^+]Cytoplasmic/[4[Ca^2+]Luminal}{exp(ErevF/RT)}{1+exp(ErevF/RT)} where R, T, F, Erev, and γ are, respectively, the gas constant, absolute temperature, Faraday constant, reversal potential, and activity coefficient. The liquid junction potentials were measured and corrected as described ([Neher, 1992]).

In experiment [4] the test system is endogenous TPCs in WT HAP1 cells. The experiment can be described thus: Whole-endolysosome recordings of endogenous ITPC in WT HAP1 cells. The format is biochemical, human. The following applies: for whole-endolysome ITPC current: wt HAP1, LyNa-VA1.1 (50 µM) co-applied with PI(3,5)P2 (0.3 µM).
For experiment [5], the system named is TPC1/2 DKO HAP1 cells. The experiment can be described thus: Whole-endolysosome recordings in TPC1/2 DKO HAP1 cells. The format is biochemical, human. To be noted: for whole-endolysome ITPC current: dko HAP1, LyNa-VA1.1 (50 µM) co-applied with PI(3,5)P2 (0.3 µM).
Excerpt: TCAs, with a general structure of an aromatic greasy core and an aliphatic chain containing a terminal amine, are lysosomotropic compounds that are known to be highly accumulating in the lysosomes due to proton trapping ([Beckmann et al., 2014]). We next tested the effects of LyNa-VAs in hTPC2-transfected Cos1 and HEK293 cells using whole-endolyosome patch-clamp.
as §1
TPC1 and TPC2 CRISPR KO cells were generated in HAP1 cells using the CRISPR/Cas9 system. The TPC1 sequence (5'cttgcagtacttcagcaccc3', TPC1-sgRNA) and TPC2 sequence (5'ccccagcgtcgggctgctgc3', TPC2-sgRNA) were targeted with pSpCas9 (BB)−2A-puro vector (Addgene). HAP1 cells were co-transfected with TPC1 and TPC2-sgRNA expressing vector in the presence of Lipofectamine 2000 (In vitrogen) and selected with 2 μg/ml puromycin for 48 hr. The remaining cells were trypsinized and seeded into 96-well plate after a limiting dilution. When single cell clones were established, their genomic DNAs were extracted and amplified with following primers: TPC1-fw: 5’atggcccagacatgtgactc3’, TPC1-re: 5’ tgcctgtctccatcctctca3’; TPC2-fw: 5’tgagctgagcatgaggcaag3’, TPC2-re: 5’ aaaggacaagtggccctgag3’. The PCR amplicons were then sequenced to confirm the intended genetic disruption.
as §2
as §3, with “coefficient.” for “coefficient. The liquid junction potentials were measured and corrected as described ([Neher, 1992]).”

Experiment [6] deals with surface-expressing mutant TRPML1 channels (TRPML1^4A). The experiment can be described thus: Whole-cell recordings of ITRPML1-4A. Format: cell-based. To be noted: TRPML1-4A wc; 100µM; individual cells.
In experiment [7] the test system is T4, hTPC1^R540I.
T4 construct: expressed in transfected cells; host or cells: Cos1
Nature of the experiment: Whole-endolysosome recordings of ITPC1-R540I. Format: biochemical, human.

Each structure is given as a SMILES string. “And” between values parts separate entries of the source, which are not always exact repeats. Identical values can stand only once. “Also recorded” adds a separate entry of the source.

T3 sequence (Q8NHX9 whole entry K204A): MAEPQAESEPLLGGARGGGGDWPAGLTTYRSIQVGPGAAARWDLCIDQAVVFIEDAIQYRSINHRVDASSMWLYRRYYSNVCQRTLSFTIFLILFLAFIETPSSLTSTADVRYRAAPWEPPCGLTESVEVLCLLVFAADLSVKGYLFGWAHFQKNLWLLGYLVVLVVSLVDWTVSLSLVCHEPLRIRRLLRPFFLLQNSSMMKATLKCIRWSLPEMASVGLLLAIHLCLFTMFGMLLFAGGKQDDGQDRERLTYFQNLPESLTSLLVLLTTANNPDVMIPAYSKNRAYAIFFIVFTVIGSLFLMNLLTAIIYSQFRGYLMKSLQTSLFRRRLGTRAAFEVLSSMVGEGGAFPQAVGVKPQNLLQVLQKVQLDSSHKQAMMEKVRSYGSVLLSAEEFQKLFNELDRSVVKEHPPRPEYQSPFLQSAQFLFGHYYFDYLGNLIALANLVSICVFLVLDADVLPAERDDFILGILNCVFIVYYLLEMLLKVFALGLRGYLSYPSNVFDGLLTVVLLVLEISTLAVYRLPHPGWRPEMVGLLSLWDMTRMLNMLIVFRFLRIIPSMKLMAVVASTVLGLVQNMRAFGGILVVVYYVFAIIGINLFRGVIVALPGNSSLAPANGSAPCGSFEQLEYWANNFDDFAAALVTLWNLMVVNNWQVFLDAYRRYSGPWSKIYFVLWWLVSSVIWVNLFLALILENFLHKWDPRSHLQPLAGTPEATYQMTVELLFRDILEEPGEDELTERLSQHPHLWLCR

Turning to `CNCCCN1c2ccccc2CCc2ccccc21` [LyNa-VA1.2, Desipramine], the “activation of TPC2 N653G (in words)” value in experiment [1] is reported as “did not alter the ability of LyNa-VA1.2 to enhance channel activation”. Further, the “PX / PNa, K+” value in experiment [1] (individual) was 0.5576 and 0.6267 and 0.3361 and 0.4961; in experiment [1] (mean) it was 0.5041. Moreover, in experiment [2], the “activation of whole-cell ITPC2-K204A (in words)” value is on record as “activated”.
On to `Nc1nc2ccc(OC(F)(F)F)cc2s1` [LyNA1, Riluzole], for which the “activation of whole-endolysosome ITPC2-K204A (in words)” value in experiment [3] was “robustly activated whole-endolysosome ITPC2”. Moreover, the “activation of whole-endolysosome ITPC in WT HAP1 cells (in words)” value in experiment [4] is recorded as “activated whole-endolysosome ITPC in WT HAP1 cells”. The “activation of whole-endolysosome ITPC in TPC1/2 DKO HAP1 cells (in words)” value in experiment [5] is on record as “not HAP1 cells lacking TPC1 or TPC2; also recorded: not TPC1/2 double KO HAP1 cells”. The “activation of whole-cell ITPC2-K204A (in words)” value in experiment [2] was “activated”.
The term EC50 denotes the concentration needed to bring the measured effect to its halfway point. Low values mean an effect from little substance, high ones a need for much substance. Take `CN(C)CCCN1c2ccccc2CCc2ccc(Cl)cc21` [LyNa-VA1.1, Clomipramine]: the “current, whole-cell ITRPML1-4A” value in experiment [6] was 28.1 pA and 29.7 pA and 114.4 pA and 172.7 pA. Moreover, the EC50 was 47 ± 5 µM in experiment [3] (K204A +PI(3,5)P2 (50 nM), whole-endolysosome, Figure 3C); 56 ± 3 µM in experiment [3] (K204A -PI(3,5)P2, whole-endolysosome, Figure 3C); 59.7 µM in experiment [3] (K204A -pip2, MEAN (Fig. 3D)); 56.4 µM and 68.2 µM and 54.5 µM in experiment [3] (K204A -pip2, individual patches (Fig. 3D)); 48.7 µM in experiment [3] (K204A+pip2 (50 nM), MEAN (Fig. 3D)); 45.5 µM and 56.2 µM and 44.4 µM in experiment [3] (K204A+pip2 (50 nM), individual patches (Fig. 3D)). Besides, the “Normalized I-TPC2” value in experiment [3] (1 µM + PI(3,5)P2 50nM, individual patches) is 0.01018 and 0.1053 and 0.1347; in experiment [3] (1 µM + PI(3,5)P2 50nM, mean), 0.08342; in experiment [3] (3 µM + PI(3,5)P2 50nM, individual patches), -0.08987 and 0.1073 and 0.2183; in experiment [3] (3 µM + PI(3,5)P2 50nM, mean), 0.07858; in experiment [3] (10 µM + PI(3,5)P2 50nM, individual patches), -0.1017 and 0.1767 and 0.2594; in experiment [3] (10 µM + PI(3,5)P2 50nM, mean) it was 0.1115. The “Normalized I-TPC2” value in experiment [3] (10 µM, no PI(3,5)P2, individual patches) was 0.02985 and 0.03877 and 0.00366; in experiment [3] (10 µM, no PI(3,5)P2, mean), 0.02409; in experiment [3] (20 µM, no PI(3,5)P2, individual patches), 0.03731 and 0.1741 and 0.01903; in experiment [3] (20 µM, no PI(3,5)P2, mean) it was 0.07682; in experiment [3] (30 µM + PI(3,5)P2 50nM, individual patches), 0.119 and 0.2972 and 0.3327; in experiment [3] (30 µM + PI(3,5)P2 50nM, mean) it was 0.2496. For the same compound, the “Normalized I-TPC2” value in experiment [3] (50 µM, no PI(3,5)P2, individual patches) was 0.2736 and 0.4263 and 0.3898; in experiment [3] (50 µM, no PI(3,5)P2, mean) it was 0.3632; in experiment [3] (100 µM + PI(3,5)P2 50nM, individual patches), 0.8468 and 1 (2×); in experiment [3] (100 µM + PI(3,5)P2 50nM, mean), 0.9489; in experiment [3] (100 µM, no PI(3,5)P2, individual patches), 0.8657 and 1 and 0.7921; in experiment [3] (100 µM, no PI(3,5)P2, mean) it was 0.8859. In addition, the “Normalized I-TPC2” value in experiment [3] (200 µM + PI(3,5)P2 50nM, individual patches) is 1 and 0.5762 and 0.9144; in experiment [3] (200 µM + PI(3,5)P2 50nM, mean), 0.8302; in experiment [3] (200 µM, no PI(3,5)P2, individual patches) it was 1 (2×) and 0.8492; in experiment [3] (200 µM, no PI(3,5)P2, mean) it was 0.9497. The “activation of whole-endolysosome ITPC in WT HAP1 cells (in words)” value in experiment [4] was “activated whole-endolysome ITPC in WT”. Further, the “whole-endolysome ITPC current” value in experiment [4] (individual) was 252.1 pA and 207.1 pA and 321.7 pA and 271.3 pA; in experiment [4] (mean), 263.05 pA; in experiment [5] (individual) it was 15.3 pA and 12.5 pA and 24.7 pA and 10.4 pA; in experiment [5] (mean) it was 15.725 pA. Besides, in experiment [5], the “activation of whole-endolysosome ITPC in TPC1/2 DKO HAP1 cells (in words)” value is reported as “not TPC1/2 DKO”. The “effect on ITPC1-R540I (in words)” value in experiment [7] is on record as “dramatic enhancement of inward currents at negative potentials”.
